# Results as given in patent US9645147B2, “Recombinant polypeptide construct comprising Plasmodium falciparum circumsporozoite protein HLA class I restricted T-cell epitopes” (priority 2013, dated 2017).
# “Also recorded” adds a separate entry of the source. Peptide text beside a SMILES is read from it.
# Key:
# Format in all cases: cell-based, human
# [1] = test system: PBMC from volunteers immunized with Ad-CA or Ad-C; experiment: IFN-γ ELISpot assay with cryopreserved PBMC of immunized volunteers; details: for Epitope sfc/m: Table 4; for ELISpot response to synthesized epitope (in words): volunteers, positive = p<0.05, at least doubling and at least ten sfc over negative control
# Protocol: Previous studies have confirmed that recall-T cell responses, as assayed by ELISpot, are detected using cryopreserved PBMCs although such responses are generally of a lower magnitude than fresh cells (Sedegah, et al., Malar J., 9: 241 (2011)).
# The positive control was commercially obtained Class I Peptide Pool Plus (Anaspec, USA). Negative control was media with all supplements but no antigen-specific stimulant.
# Throughout the studies, IFN-γ ELISpot assays were conducted as previously described (Sedegah, et al., Malar J., 9: 241 (2011); Wang, et al., PNAS (USA), 98: 10817-22 (2001)). Cryopreserved PBMC were suspended in 100 μL complete medium and stimulated with CSP peptides in 100 μL of complete medium at a final concentration of 10 μg/mL of each peptide tested (Wang, et al., PNAS (USA), 98: 10817-22 (2001)).
# Cultures were incubated for 36 hours at 37° C., 5% CO2. Depending on availability of cells, each PBMC sample was assayed in duplicate, triplicate, or quadruplicate and the number of IFN-γ-secreting spot forming cells (sfc) was counted using an automated ELISpot reader (AID, GmbH, Germany). In duplicate assays, all values were used in analysis. […] The mean number of sfcs obtained in negative control wells was subtracted from the value of each test well from the same sample. Negative counts generated by this background subtraction were converted to zero. The mean number of spots of the test sample was then calculated and expressed as spot forming cells/million (sfc/m). A positive response was defined as a significant difference (p=<0.05) between average of the number of spot forming cells (sfc) in test wells and the average of negative control wells (Student's two tailed t-test), and at least a doubling of sfc in test wells relative to negative control wells, and a difference of at least ten sfc between test and negative control wells (Sedegah, et al., PLoS One, 6: e24586 (2011)).
# [2] = test system: PBMC depleted of T-cell subsets; experiment: ELISpot IFN-γ after T-cell subset depletion (CD4+ or CD8+ Dynabeads, mock control); details: for confirmation as recalling CD8+ T cell responses: ELISpot depletion and ICS studies; for CD4+ depl. sfc/m: after CD4+ T cell depletion; for CD4+ depl. (%) percent change in ELISpot activity: after CD4+ T cell depletion vs control depletion; for CD8+ depl. sfc/m: after CD8+ T cell depletion; for CD8+ depl. (%) percent change in ELISpot activity: after CD8+ T cell depletion vs control depletion; for Control dept. sfc/m: mock (control) depletion; for percent reduction of ELISpot response after CD8+ T cell depletion: text summary over the four volunteers of Table 6
# Source text: For characterization of ELISpot IFN-γ-producing cells by T-cell subset depletions PBMC were depleted of T-cell subsets using anti-human CD4+ or anti-CD8+ coated Dynabeads M-450 (Dynal, Great Neck, N.Y.) following the manufacturer's instructions. Mock depletion was done with Dynabeads coated with sheep anti-mouse IgG. Flow cytometry confirmed that T-cell subset depletions were >99% in all experiments. Data are presented as the spot-forming cells/million (sfc/m) and percent decrease or increase in activity after depletion.
# To further evaluate the predicted epitopes, ELISpot depletion assays were performed using PBMC from four volunteers stimulated with six predicted and tested epitopes. CD8+ T cell depletion reduced responses to Cp1 and Cp9 by 82%100%.
# [3] = test system: CD8+ T cells; experiment: Intracellular cytokine staining (ICS), IFN-γ, CD8+ population; details: for ICS CD8+ T cell recall responses (in words): ICS assays, volunteers of Table 6; for CD8+ % (per cent of CD8+ T cells expressing IFN-γ): ICS, positive >0.03%
# Protocol: (§1) Intracellular cytokine staining (ICS) was performed as published previously (Stewart, et al, Infect. Immun., 75: 2283-90 (2007)). Cryopreserved PBMC were thawed, washed, and resuspended at 10×10^6 cells per mL in complete medium. Peptides were used at 10 μg/mL and costimulatory antibodies anti-CD28 and […] (BD Bioscience, San Jose, Calif.) were used at 1 μg/mL. Stimulants were added to cells and incubated at 37° C. with 5% CO2 for 2 hours. Cells were stained with anti-CD3, anti-CD4, anti-CD8, anti-IFN-γ, anti-TNFα, and anti-IL2 and the entire available sample was acquired on a BD LSRII using FACSDiVa (BD Bioscience) software. Data were analyzed using FlowJo Software (Treestar, Inc.). The gating strategy involved progressively measuring total cells; viable cells; lymphocytes; T cells; CD4+ or CD8+ populations; and finally a specific cell type expressing a specific cytokine. Results were transferred to Prism (GraphPad) for graphing and statistical analysis. Data for peptides were corrected for media responses. A positive response was greater than the medium controls+3 standard deviations (0.03%).
# [4] = test system: CD4+ T cells; experiment: Intracellular cytokine staining (ICS), IFN-γ, CD4+ population; details: for ICS CD4+ T cell recall responses (in words): ICS assays, volunteers of Table 6; for CD4+ % (per cent of CD4+ T cells expressing IFN-γ): ICS, positive >0.03%
# Protocol: as §1
# [5] = volunteer 37 (Ad-C), synthesized epitope, second assay (second value of the cell)
# [6] = volunteer 37 (Ad-C), synthesized epitope, single value or first of two assays
# [7] = volunteer 40 (Ad-C), synthesized epitope, first of two assays
# [8] = volunteer 40 (Ad-C), synthesized epitope, second assay (second value of the cell)
Molecule,"Epitope sfc/m [1, 5]","Epitope sfc/m [1, 6]","Epitope sfc/m [1, 7] [sfc/m]","Epitope sfc/m [1, 8] [sfc/m]",ELISpot response to synthesized epitope (in words) [1],confirmation as recalling CD8+ T cell responses [2],CD4+ depl. sfc/m ([2]; V40) [sfc/m],CD4+ depl. (%) percent change in ELISpot activity ([2]; V40) [%],CD8+ depl. sfc/m ([2]; V40) [sfc/m],CD8+ depl. (%) percent change in ELISpot activity ([2]; V40) [%],Control dept. sfc/m ([2]; V40) [sfc/m],CD4+ depl. sfc/m ([2]; V156) [sfc/m],CD4+ depl. (%) percent change in ELISpot activity ([2]; V156),CD8+ depl. sfc/m ([2]; V156) [sfc/m],CD8+ depl. (%) percent change in ELISpot activity ([2]; V156) [%],Control dept. sfc/m ([2]; V156) [sfc/m],ICS CD8+ T cell recall responses (in words) [3],CD8+ % (per cent of CD8+ T cells expressing IFN-γ) ([3]; V40) [%],ICS CD4+ T cell recall responses (in words) [4],CD4+ % (per cent of CD4+ T cells expressing IFN-γ) ([4]; V40) [%],other results
CC[C@H](C)[C@H](NC(=O)[C@@H](N)CC(C)C)C(=O)N[C@@H](CCSC)C(=O)N[C@H](C(=O)N[C@@H](CC(C)C)C(=O)N[C@@H](CO)C(=O)N[C@@H](Cc1ccccc1)C(=O)N[C@@H](CC(C)C)C(=O)N[C@@H](Cc1ccccc1)C(=O)O)C(C)C [Epitope E17a] (H-LIMVLSFLF-OH; N-terminus and C-terminus assumed),38 sfc/m,55 sfc/m,290,166,recognized; also recorded: positive; also recorded: demonstrated activity,confirmed as recalling CD8+ T cell responses,210,−11,23,−90,236,264,−18%,85,−82,307,positive,0.54,negative,0.02,CD8+ % (per cent of CD8+ T cells expressing IFN-γ) ([3]; V156): 0.26%; CD4+ % (per cent of CD4+ T cells expressing IFN-γ) ([4]; V156): 0.01%
CC(C)C[C@H](NC(=O)[C@H](C)NC(=O)[C@H](CCC(=O)O)NC(=O)[C@@H](NC(=O)[C@H](Cc1ccccc1)NC(=O)[C@H](CC(C)C)NC(=O)[C@H](Cc1ccccc1)NC(=O)[C@@H](N)CO)C(C)C)C(=O)N[C@@H](Cc1ccccc1)C(=O)O [Epitope E20] (H-SFLFVEALF-OH; N-terminus and C-terminus assumed),"53, 53 sfc/m","53, 53 sfc/m",313,197,moderately positive; also recorded: demonstrated activity,confirmed as recalling CD8+ T cell responses,226,−11,15,−94,254,273,+28%,29,−86,213,positive,0.37,negative,0.04,"Epitope sfc/m ([1]; volunteer 68 (Ad-C), synthesized 8-10mer epitope): 34 sfc/m; Epitope sfc/m ([1]; volunteer 156 (Ad-CA), synthesized 8-10mer epitope): 240 sfc/m; CD8+ % (per cent of CD8+ T cells expressing IFN-γ) ([3]; V156): 0.25%; CD4+ % (per cent of CD4+ T cells expressing IFN-γ) ([4]; V156): 0.01%"
"SVSSFLFVEA (listed as Plasmodium falciparum) [Epitope E19, CSP aa 9-18]",,,,,moderately active; also recorded: demonstrated activity,confirmed as recalling CD8+ T cell responses,,,,,,,,,,,weakly positive,,,,"Epitope sfc/m ([1]; volunteer 125 (Ad-CA), synthesized 8-10mer epitope): 33 sfc/m; CD4+ depl. sfc/m ([2]; V125): 17 sfc/m; CD4+ depl. (%) percent change in ELISpot activity ([2]; V125): −78%; CD8+ depl. sfc/m ([2]; V125): 72 sfc/m; CD8+ depl. (%) percent change in ELISpot activity ([2]; V125): −9%; Control dept. sfc/m ([2]; V125): 79 sfc/m; percent reduction of ELISpot response after CD8+ T cell depletion [2]: 9%; CD8+ % (per cent of CD8+ T cells expressing IFN-γ) ([3]; V125): 0.06%; CD4+ % (per cent of CD4+ T cells expressing IFN-γ) ([4]; V125): 0.02%"
VFNVVNSSI [Epitope E13a],,,104,72,demonstrated activity,confirmed as recalling CD8+ T cell responses,43,−50,38,−56,86,,,,,,positive,0.12,negative,0.01,percent reduction of ELISpot response after CD8+ T cell depletion [2]: 56%
